Measured values from the supplement of paper PMC10627819.

How the values were obtained:
S. aureus DSM 20231 [1] = test: Bliss interaction score (quartile over a dose matrix) (fitness difference); higher = more antagonism (negative = synergy)
Summary of the method: (§1)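 The Bliss score was calculated by subtracting the expected fitness, the product of single-drug values, from the observed fitness. OD595 at entry into stationary phase, over the plate's robust no-drug mean and capped at 1, served as the fitness readout. Single-drug values were inferred from combination data, and scores are summarised by quartiles across technical, biological and donor/recipient replicates.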

S. aureus Newman [2] = test: as above
Summary of the method: as §1

B. subtilis 168 [3] = test: as above
Summary of the method: as §1

S. pneumoniae D39V [4] = test: as above
Summary of the method: as §1

S. aureus DSM 20231 [5] = test: fitness (endpoint OD595 vs no drug) (fraction); higher = more growth
Summary of the method: (§2)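 Bacterial fitness was scored as optical density at the stationary-phase transition relative to the robust mean of no-drug control wells. Scores are capped at 1. The growth data were OD595 readings every 30 min for 14 h at 37 °C, background-subtracted against the first reading, from 384-well plates inoculated at OD595 0.01 in TSB, LB Lennox or CY.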

S. aureus Newman [6] = test: as above
Summary of the method: as §2

B. subtilis 168 [7] = test: as above
Summary of the method: as §2

S. pneumoniae D39V [8] = test: as above
Summary of the method: as §2
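Wherever Bliss interaction score (quartile over a dose matrix) is given: first quartile when negative (synergy) and third quartile when positive (antagonism).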

COc1cccc2c1C(=O)c1c(O)c3c(c(O)c1C2=O)C[C@@](O)(C(=O)CO)C[C@@H]3O[C@H]1C[C@H](N)[C@H](O)[C@H](C)O1 [Doxorubicin] + C[n+]1ccc(-c2cc[n+](C)cc2)cc1 [Paraquat]
Settings	Bliss interaction score
B. subtilis 168 [3]	0.105
S. aureus DSM 20231 [1]	-0.0686
S. aureus Newman [2]	-0.052
S. pneumoniae D39V [4]	0.0503

fitness
Settings	first compound 0.25 µg/mL	first compound 0.5 µg/mL	first compound 0.625 µg/mL	first compound 1 µg/mL	first compound 1.25 µg/mL	first compound 2.5 µg/mL
B. subtilis 168 [7], partner 1.25 µg/mL	–	–	≥ 1	–	0.892	0.686
B. subtilis 168 [7], partner 2.5 µg/mL	–	–	0.924	–	0.861	0.656
B. subtilis 168 [7], partner 5 µg/mL	–	–	0.862	–	0.876	0.595
S. aureus DSM 20231 [5], partner 1.25 µg/mL	–	–	0.858	–	0.882	0.782
S. aureus DSM 20231 [5], partner 2.5 µg/mL	–	–	0.828	–	0.835	0.761
S. aureus DSM 20231 [5], partner 5 µg/mL	–	–	0.823	–	0.8	0.744
S. aureus Newman [6], partner 1.25 µg/mL	–	–	0.712	–	0.742	0.732
S. aureus Newman [6], partner 2.5 µg/mL	–	–	0.715	–	0.792	0.759
S. aureus Newman [6], partner 5 µg/mL	–	–	0.744	–	0.743	0.761
S. pneumoniae D39V [8], partner 1.5 µg/mL	0.98	0.992	–	0.9	–	–
S. pneumoniae D39V [8], partner 3 µg/mL	0.936	0.979	–	0.886	–	–
S. pneumoniae D39V [8], partner 6 µg/mL	0.916	0.946	–	0.872	–	–

C[C@@H]1O[C@@H]1P(=O)(O)O [Fosfomycin] + CCN(CC)CCOC(=O)c1ccc(N)cc1 [Procaine]
Settings	Bliss interaction score
B. subtilis 168 [3]	-0.0557
S. aureus DSM 20231 [1]	-0.0626
S. aureus Newman [2]	0.0813
S. pneumoniae D39V [4]	-0.029

fitness
Settings	partner 85.5 µg/mL	partner 171 µg/mL	partner 342 µg/mL
B. subtilis 168 [7], first compound 1.562 µg/mL	0.711	0.704	0.646
B. subtilis 168 [7], first compound 3.124 µg/mL	0.592	0.554	0.576
B. subtilis 168 [7], first compound 6.248 µg/mL	0.377	0.372	0.322
S. aureus DSM 20231 [5], first compound 0.781 µg/mL	0.736	0.812	0.833
S. aureus DSM 20231 [5], first compound 1.562 µg/mL	0.603	0.64	0.634
S. aureus DSM 20231 [5], first compound 3.124 µg/mL	0.427	0.513	0.489
S. aureus Newman [6], first compound 0.781 µg/mL	0.576	0.54	0.562
S. aureus Newman [6], first compound 1.562 µg/mL	0.535	0.553	0.516
S. aureus Newman [6], first compound 3.124 µg/mL	0.198	0.197	0.162
S. pneumoniae D39V [8], first compound 1.25 µg/mL	0.979	0.97	0.924
S. pneumoniae D39V [8], first compound 2.5 µg/mL	0.951	0.921	0.905
S. pneumoniae D39V [8], first compound 5 µg/mL	0.81	0.827	0.813
